Data: patent US12649727B2, “EFGR inhibitor, preparation method therefor and application thereof” (Abbisko Therapeutics Co., Ltd, priority 2020, dated 2026)

Experiments:
Assay type in all cases: cell-based
A431 (EGFR-WT) = experiment: Proliferation experiment, A431 cell line (CellTiter-Glo); settings: Homo sapiens, A-431; A431 cells, cultured for 72 hrs with compound, CTG analysis
[1] = target: Ba/F3 EGFR-D770-N771ins_SVD (Homo sapiens, UniProt P00533, DUP768-770, cells depend on it); experiment: Proliferation experiment of Ba/F3 cell line, EGFR-D770-N771ins_SVD (CellTiter-Glo); settings: cultured for 72 hrs with compound, CTG analysis, read-out: Ba/F3 EGFR-D770-N771ins_SVD IC50
Sequence of Ba/F3 EGFR-D770-N771ins_SVD (P00533 with tags, fused parts or gaps DUP768-770): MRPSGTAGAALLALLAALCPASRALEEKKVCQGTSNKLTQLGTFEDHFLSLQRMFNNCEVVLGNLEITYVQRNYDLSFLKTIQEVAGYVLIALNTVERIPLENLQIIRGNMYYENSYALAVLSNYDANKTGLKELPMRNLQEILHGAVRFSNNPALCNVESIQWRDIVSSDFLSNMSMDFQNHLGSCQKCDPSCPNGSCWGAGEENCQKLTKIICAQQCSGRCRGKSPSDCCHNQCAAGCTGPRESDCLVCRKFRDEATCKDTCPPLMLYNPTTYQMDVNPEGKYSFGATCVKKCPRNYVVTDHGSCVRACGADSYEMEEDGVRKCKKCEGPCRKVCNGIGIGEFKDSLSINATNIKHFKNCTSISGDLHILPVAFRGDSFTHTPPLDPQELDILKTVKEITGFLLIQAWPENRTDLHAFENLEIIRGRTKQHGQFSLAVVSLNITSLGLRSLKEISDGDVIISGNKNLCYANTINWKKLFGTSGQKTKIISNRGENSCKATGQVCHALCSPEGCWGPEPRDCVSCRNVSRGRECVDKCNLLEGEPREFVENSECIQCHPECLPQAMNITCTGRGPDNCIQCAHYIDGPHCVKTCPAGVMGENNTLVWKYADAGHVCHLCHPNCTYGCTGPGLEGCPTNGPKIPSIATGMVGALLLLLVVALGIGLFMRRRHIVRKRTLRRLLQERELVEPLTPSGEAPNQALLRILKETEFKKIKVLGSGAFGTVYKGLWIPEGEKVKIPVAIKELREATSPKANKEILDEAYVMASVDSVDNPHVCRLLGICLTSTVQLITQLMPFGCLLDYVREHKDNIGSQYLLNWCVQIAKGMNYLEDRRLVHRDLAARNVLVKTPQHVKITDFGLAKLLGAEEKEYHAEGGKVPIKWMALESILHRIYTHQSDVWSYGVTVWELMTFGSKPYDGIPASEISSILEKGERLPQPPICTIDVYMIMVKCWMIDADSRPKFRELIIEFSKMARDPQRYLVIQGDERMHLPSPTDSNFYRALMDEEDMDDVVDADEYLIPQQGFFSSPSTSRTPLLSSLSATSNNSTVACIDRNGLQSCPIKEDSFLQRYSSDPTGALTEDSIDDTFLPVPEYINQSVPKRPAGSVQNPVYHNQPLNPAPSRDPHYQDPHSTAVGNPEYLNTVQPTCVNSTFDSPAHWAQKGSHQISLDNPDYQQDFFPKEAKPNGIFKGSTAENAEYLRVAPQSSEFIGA
How it was run: (§1)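 […] Ba/F3 cells expressing EGFR insertion mutants treated 72 h at 37 °C with 9 concentrations, 3.16-fold dilutions, top 10 μM, 0.1% DMSO, in triplicate. Viability by CellTiter-Glo luminescence with T0 reference plate; IC50 (nM) from non-linear dose-response fit.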

[2] = target: Ba/F3 EGFR-V769_D770insASV (Homo sapiens, UniProt P00533, DUP767-769, cells depend on it); experiment: Proliferation experiment of Ba/F3 cell line, EGFR-V769_D770insASV (CellTiter-Glo); settings: cultured for 72 hrs with compound, CTG analysis, read-out: Ba/F3 EGFR-V769_D770insASV IC50
Sequence of Ba/F3 EGFR-V769_D770insASV (P00533 with tags, fused parts or gaps DUP767-769): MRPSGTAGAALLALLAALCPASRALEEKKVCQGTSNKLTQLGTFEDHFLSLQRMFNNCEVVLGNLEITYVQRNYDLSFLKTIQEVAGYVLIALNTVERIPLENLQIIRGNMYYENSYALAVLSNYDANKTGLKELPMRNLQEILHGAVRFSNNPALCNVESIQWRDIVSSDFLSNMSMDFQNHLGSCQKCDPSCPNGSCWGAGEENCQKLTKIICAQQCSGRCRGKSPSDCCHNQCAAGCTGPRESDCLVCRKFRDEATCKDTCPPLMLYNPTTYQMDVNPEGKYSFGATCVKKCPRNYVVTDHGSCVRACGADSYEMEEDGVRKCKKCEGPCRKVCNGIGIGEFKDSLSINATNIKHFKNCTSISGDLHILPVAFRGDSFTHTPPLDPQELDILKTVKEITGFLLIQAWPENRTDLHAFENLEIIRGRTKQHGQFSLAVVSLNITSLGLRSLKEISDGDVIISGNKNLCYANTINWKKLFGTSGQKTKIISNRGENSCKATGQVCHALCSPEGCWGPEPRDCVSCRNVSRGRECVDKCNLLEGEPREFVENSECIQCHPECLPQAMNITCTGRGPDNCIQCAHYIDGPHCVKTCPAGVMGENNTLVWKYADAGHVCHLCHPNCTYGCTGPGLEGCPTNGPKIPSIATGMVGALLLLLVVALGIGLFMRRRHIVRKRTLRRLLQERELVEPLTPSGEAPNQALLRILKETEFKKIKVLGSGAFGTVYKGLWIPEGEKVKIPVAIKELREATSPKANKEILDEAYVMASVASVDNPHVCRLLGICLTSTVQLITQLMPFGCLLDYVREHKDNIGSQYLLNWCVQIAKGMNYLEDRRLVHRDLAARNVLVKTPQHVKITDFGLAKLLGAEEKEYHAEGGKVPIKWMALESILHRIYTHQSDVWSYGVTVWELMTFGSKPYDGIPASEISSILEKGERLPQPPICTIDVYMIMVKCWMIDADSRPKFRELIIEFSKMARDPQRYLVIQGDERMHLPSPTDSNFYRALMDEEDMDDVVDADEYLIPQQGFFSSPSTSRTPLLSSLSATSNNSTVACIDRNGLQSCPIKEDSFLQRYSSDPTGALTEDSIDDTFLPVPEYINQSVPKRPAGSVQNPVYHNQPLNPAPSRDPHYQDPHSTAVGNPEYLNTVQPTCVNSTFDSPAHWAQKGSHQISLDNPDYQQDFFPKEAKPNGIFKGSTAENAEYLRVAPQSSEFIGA
How it was run: as §1

SMILES | IC50 (A431 (EGFR-WT)) [nM] | GI50 [1] [nM] | GI50 [2] [nM]
C=C(F)C(=O)Nc1cc2c(Nc3ccnc(-c4ccccc4F)c3)ncnc2cc1N1CCC(N2CCOCC2)CC1 [Example 102, 2-fluoro-N-(4-((2-(2-fluorophenyl)pyridin-4-yl)amino)-7-(4-morpholinopiperidin-1-yl)quinazolin-6-yl)acrylamide] | 733 | 6.1 | 17
C=CC(=O)Nc1cc2c(Nc3cccc(-n4cccn4)c3)ncnc2cc1OCCCN1CCN(C)CC1 [Example 53, N-(4-((3-(1H-pyrazol-1-yl)phenyl)amino)-7-(3-(4-methylpiperazin-1-yl)propoxy)quinazolin-6-yl)acrylamide] | 341 | 11.4 | 22.3
C=C(F)C(=O)Nc1cc2c(Nc3ccnc(-c4ccccc4F)c3)ncnc2cc1N1CCC(N2CCN(C)CC2)CC1 [Example 103, 2-fluoro-N-(4-((2-(2-fluorophenyl)pyridin-4-yl)amino)-7-(4-(4-methylpiperazin-1-yl)piperidin-1-yl)quinazolin-6-yl)acrylamide] | 15 | 30 | 6.1
C=C(F)C(=O)Nc1cc2c(Nc3ccnc(-c4ccccc4F)c3)ncnc2cc1F [Example 93, 2-fluoro-N-(7-fluoro-4-((2-(2-fluorophenyl)pyridin-4-yl)amino)quinazolin-6-yl)acrylamide] | 877 | 14.5 | 51.1
C=CC(=O)Nc1cc2c(Nc3ccnc(-c4ccccc4F)c3)ncnc2cc1N1CCOCC1 [Example 94, N-(4-((2-(2-fluorophenyl)pyridin-4-yl)amino)-7-morpholinoquinazolin-6-yl)acrylamide] | 2330 | 1.4 | 1.9
C=C(F)C(=O)Nc1cc2c(Nc3ccnc(-c4ccccc4F)c3)ncnc2cc1O[C@@H]1CCN(C)C1 [Example 66, (R)-2-fluoro-N-(4-((2-(2-fluorophenyl)pyridin-4-yl)amino)-7-((1-methylpyrrolidin-3-yl)oxy)quinazolin-6-yl)acrylamide] | 10.2 | 5.9 | 6.5
C=C(F)C(=O)Nc1cc2c(Nc3ccnc(-c4ccccc4F)c3)ncnc2cc1N1CCOCC1 [Example 95, 2-fluoro-N-(4-((2-(2-fluorophenyl)pyridin-4-yl)amino)-7-morpholinoquinazolin-6-yl)acrylamide] | 1820 | 3.3 | 8.3
C=CC(=O)Nc1cc2c(Nc3cncc(-c4c(F)cccc4F)c3)ncnc2cc1O[C@@H]1CCN(C)C1 [Example 64, (R)-N-(4-((5-(2,6-difluorophenyl)pyridin-3-yl)amino)-7-((1-methylpyrrolidin-3-yl)oxy)quinazolin-6-yl)acrylamide] | 1000 | 34.5 | 63.6
C=CC(=O)Nc1cc2c(Nc3ccnc(-c4ccccc4F)c3)ncnc2cc1N1CCC(N2CCOCC2)CC1 [Example 98, N-(4-((2-(2-fluorophenyl)pyridin-4-yl)amino)-7-(4-morpholinopiperidin-1-yl)quinazolin-6-yl)acrylamide] | 1530 | 2 | 6.3
C=CC(=O)Nc1cc2c(Nc3ccnc(-c4ccccc4F)c3)ncnc2cc1O[C@@H]1CCN(CCOC)C1 [Example 111, (R)—N-(4-((2-(2-fluorophenyl)pyridin-4-yl)amino)-7-((1-(2-methoxyethyl)pyrrolidin-3-yl)oxy)quinazolin-6-yl)acrylamide] | 84.6 | 1.8 | 3.4
C=CC(=O)Nc1cc2c(Nc3ccnc(-c4ccccc4F)c3)ncnc2cc1O[C@@H]1CCN(C2CCN(C)CC2)C1 [Example 116, (R)-N-(4-((2-(2-fluorophenyl)pyridin-4-yl)amino)-7-((1-(1-methylpiperidin-4-yl)pyrrolidin-3-yl)oxy)quinazolin-6-yl)acrylamide] | 142 | 3 | 3.4
C=CC(=O)Nc1cc2c(Nc3ccc(F)c(-c4ccccn4)c3)ncnc2cc1OCCCN1CCOCC1 [Example 49, N-(4-((4-fluoro-3-(pyridin-2-yl)phenyl)amino)-7-(3-morpholinopropoxy)quinazolin-6-yl)acrylamide] | 377 | 28.6 | 59.1

Results, then the molecule that gave them:

IC50 (A431 (EGFR-WT)) [nM] | GI50 [1] [nM] | GI50 [2] [nM] | SMILES
252 | 36.5 | 53.9 | C=CC(=O)Nc1cc2c(Nc3cc(-c4ccc(F)cc4F)ccc3F)ncnc2cc1OCCCN1CCN(C)CC1 [Example 20, N-(7-(3-(4-methylpiperazin-1-yl)propoxy)-4-((2′,4,4′-trifluoro-[1,1′-biphenyl]-3-yl)amino)quinazolin-6-yl)acrylamide]
81 | 3.1 | 5 | C=CC(=O)Nc1cc2c(Nc3ccnc(-c4ccccc4F)c3)ncnc2cc1OCCCN1CCN(C)CC1 [Example 70, N-(4-((2-(2-fluorophenyl)pyridin-4-yl)amino)-7-(3-(4-methylpiperazin-1-yl)propoxy)quinazolin-6-yl)acrylamide]
352 | 33.9 | 106 | C=CC(=O)Nc1cc2c(Nc3cccc(-c4c(F)cc(F)cc4F)c3)ncnc2cc1OCCCN1CCOCC1 [Example 25, N-(7-(3-morpholinopropoxy)-4-((2′,4′,6′-trifluoro-[1,1′-biphenyl]-3-yl)amino)quinazolin-6-yl)acrylamide]
271 | 18 | 25.6 | C=CC(=O)Nc1cc2c(Nc3ccc(F)c(-c4ccccc4F)c3)ncnc2cc1OCCCN1CCN(C)CC1 [Example 39, N-(4-((2′,6-difluoro-[1,1′-biphenyl]-3-yl)amino)-7-(3-(4-methylpiperazin-1-yl)propoxy)quinazolin-6-yl)acrylamide]
215 | 11.8 | 42.4 | C=CC(=O)Nc1cc2c(Nc3cccc(-c4ccc(F)cc4F)c3)ncnc2cc1OCCCN1CCOCC1 [Example 1, N-(4-((2′,4′-difluoro-[1,1′-biphenyl]-3-yl)amino)-7-(3-morpholinopropoxy)quinazolin-6-yl)acrylamide]
193 | 26.8 | 35.6 | C=CC(=O)Nc1cc2c(Nc3cccc(-c4c(F)cccc4F)c3)ncnc2cc1OCCCN1CC[C@H](N(C)C)C1 [Example 35, (S)-N-(4-((2′,6′-difluoro-[1,1′-biphenyl]-3-yl)amino)-7-(3-(3-(dimethylamino)pyrrolidin-1-yl)propoxy)quinazolin-6-yl)acrylamide]
223 | 13 | 20.3 | C=CC(=O)Nc1cc2c(Nc3cccc(-c4c(F)cccc4F)c3)ncnc2cc1OCCCN1CCN(C)CC1 [Example 5, N-(4-((2′,6′-difluoro-[1,1′-biphenyl]-3-yl)amino)-7-(3-(4-methylpiperazin-1-yl)propoxy)quinazolin-6-yl)acrylamide]
518 | 26.1 | 90.9 | C=CC(=O)Nc1cc2c(Nc3cccc(-c4ncc(F)cc4F)c3)ncnc2cc1OCCCN1CCOCC1 [Example 17, N-(4-((3-(3,5-difluoropyridin-2-yl)phenyl)amino)-7-(3-morpholinopropoxy)quinazolin-6-yl)acrylamide]
343 | 38.5 | 117 | C=CC(=O)Nc1cc2c(Nc3cccc(-c4ccc(F)cc4F)c3)ncnc2cc1OCCN1CCOCC1 [Example 3, N-(4-((2′,4′-difluoro-[1,1′-biphenyl]-3-yl)amino)-7-(2-morpholinoethoxy)quinazolin-6-yl)acrylamide]
225 | 68.2 | 111 | C=CC(=O)Nc1cc2c(Nc3cccc(-c4c(F)cccc4F)c3)ncnc2cc1OCCCN1CCN(CC(F)(F)F)CC1 [Example 31, N-(4-((2′,6′-difluoro-[1,1′-biphenyl]-3-yl)amino)-7-(3-(4-(2,2,2-trifluoroethyl)piperazin-1-yl)propoxy)quinazolin-6-yl)acrylamide]
26 | 14.5 | 41.4 | C=CC(=O)Nc1cc2c(Nc3ccc(F)c(-c4ccccc4)c3)ncnc2cc1OCCCN1CCN(C)CC1 [Example 48, N-(4-((6-fluoro-[1,1′-biphenyl]-3-yl)amino)-7-(3-(4-methylpiperazin-1-yl)propoxy)quinazolin-6-yl)acrylamide]
205 | 35.9 | 86.3 | C=CC(=O)Nc1cc2c(Nc3cccc(-c4c(F)cccc4F)c3)ncnc2cc1OCCCN1CCN(C)C(=O)C1 [Example 32, N-(4-((2′,6′-difluoro-[1,1′-biphenyl]-3-yl)amino)-7-(3-(4-methyl-3-oxopiperazin-1-yl)propoxy)quinazolin-6-yl)acrylamide]
498 | 56.1 | 137 | C=CC(=O)Nc1cc2c(Nc3cccc(-c4ccc(F)cc4F)c3)ncnc2cc1OCCCN1CCC(F)(F)C1 [Example 15, N-(4-((2′,4′-difluoro-[1,1′-biphenyl]-3-yl)amino)-7-(3-(3,3-difluoropyrrolidin-1-yl)propoxy)quinazolin-6-yl)acrylamide]
51.8 | 37 | 44.6 | C=CC(=O)Nc1cc2c(Nc3cccc(-c4c(F)cccc4F)c3)ncnc2cc1OCCCN1CCN(C2CC2)CC1 [Example 29, N-(7-(3-(4-cyclopropylpiperazin-1-yl)propoxy)-4-((2′,6′-difluoro-[1,1′-biphenyl]-3-yl)amino)quinazolin-6-yl)acrylamide]
